Test results reported in PubChem BioAssay AID1845216 (Molecular Pharmacology Branch, DTP, NCI, 2023).

Test system: SW 982 tumor spheroid viability
Test: Anticancer human tumor SW 982 cell line growth inhibition;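 also: spheroids exposed to compound for 7 days before readout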
Details: spheroids with HUVEC and MSC; for IC50: curve of first compound; for viability, T/C: stronger effect = lower value
In short: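 Complex tumor spheroids combined malignant cells with endothelial cells and mesenchymal stem cells. DNA-damaging drugs and DNA repair inhibitors were tested alone and in combination, at half-log dilutions down from clinical Cmax (top 10 microM if Cmax unknown), 0.25% DMSO final.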

[1] = second compound 30 pM, first compound 0.00949 µM
[2] = second compound 30 pM, first compound 0.03 µM
[3] = second compound 30 pM, first compound 0.0949 µM
[4] = second compound 30 pM, first compound 0.3 µM
[5] = second compound 30 pM, first compound 0.949 µM
[6] = second compound 30 pM, first compound 3 µM
[7] = second compound 94.9 pM, first compound 0.00949 µM
[8] = second compound 94.9 pM, first compound 0.03 µM
[9] = second compound 94.9 pM, first compound 0.0949 µM
[10] = second compound 94.9 pM, first compound 0.3 µM
[11] = second compound 94.9 pM, first compound 0.949 µM
[12] = second compound 94.9 pM, first compound 3 µM
[13] = second compound 0.0003 µM, first compound 0.00949 µM
[14] = second compound 0.0003 µM, first compound 0.03 µM
[15] = second compound 0.0003 µM, first compound 0.0949 µM
[16] = second compound 0.0003 µM, first compound 0.3 µM
[17] = second compound 0.0003 µM, first compound 0.949 µM
[18] = second compound 0.0003 µM, first compound 3 µM
[19] = second compound 0.000949 µM, first compound 0.00949 µM
[20] = second compound 0.000949 µM, first compound 0.03 µM
[21] = second compound 0.000949 µM, first compound 0.0949 µM
[22] = second compound 0.000949 µM, first compound 0.3 µM
[23] = second compound 0.000949 µM, first compound 0.949 µM
[24] = second compound 0.000949 µM, first compound 3 µM
[25] = second compound 0.003 µM, first compound 0.00949 µM
[26] = second compound 0.003 µM, first compound 0.03 µM
[27] = second compound 0.003 µM, first compound 0.0949 µM
[28] = second compound 0.003 µM, first compound 0.3 µM
[29] = second compound 0.003 µM, first compound 0.949 µM
[30] = second compound 0.003 µM, first compound 3 µM

Row | SMILES | IC50 (second compound 30 pM) | IC50 (second compound 94.9 pM) | IC50 (second compound 0.0003 µM) | IC50 (second compound 0.000949 µM) | IC50 (second compound 0.003 µM) | viability, T/C [3] | viability, T/C [4] | viability, T/C [5] | viability, T/C [6] | viability, T/C [9] | viability, T/C [10] | viability, T/C [11] | viability, T/C [12] | viability, T/C [15] | viability, T/C [16] | viability, T/C [17] | viability, T/C [18] | viability, T/C [21] | viability, T/C [22] | viability, T/C [23] | also measured
1 | CNCc1ccc(-c2cc(-c3nc(-c4ccc(S(=O)(=O)C(C)C)cc4)cnc3N)on2)cc1 + COc1cc2c(cc1O)CCNC21CSC2c3c(OC(C)=O)c(C)c4c(c3C(COC1=O)N1C(O)C3Cc5cc(C)c(OC)c(O)c5C(C21)N3C)OCO4 | 0.211 µM | 0.131 µM | 0.107 µM | < 0.00949 µM | < 0.00949 µM | 78.3% | 33.4% | 23.8% | 2.48% | 55.9% | 26.4% | 18.9% | 2.12% | 47.9% | 28.2% | 16.5% | 2.22% | 28.2% | 15.9% | 9.5% | viability, T/C [1]: 99.6%; viability, T/C [2]: 95.6%; viability, T/C [7]: 100%; viability, T/C [8]: 94%; viability, T/C [13]: 84.7%; viability, T/C [14]: 81%; viability, T/C [19]: 49.3%; viability, T/C [20]: 39.2%; viability, T/C [24]: 0.69%; viability, T/C [25]: 0.4%; viability, T/C [26]: 1.22%; viability, T/C [27]: 0.92%; viability, T/C [28]: 0.5%; viability, T/C [29]: 1.07%; viability, T/C [30]: 0.31%
2 | Cc1sc2c(c1C)C(c1ccc(Cl)cc1)=NC(CC(=O)Nc1ccc(O)cc1)c1nnc(C)n1-2 (stereo not given) + COc1cc2c(cc1O)CCNC21CSC2c3c(OC(C)=O)c(C)c4c(c3C(COC1=O)N1C(O)C3Cc5cc(C)c(OC)c(O)c5C(C21)N3C)OCO4 | 0.257 µM | 0.344 µM | 0.482 µM | 0.00949 µM | < 0.00949 µM | 75.5% | 46.2% | 28.5% | 23.6% | 71.1% | 53.8% | 33.2% | 21.6% | 70.4% | 68% | 24.9% | 13.6% | 64.8% | 19.2% | 4.8% | viability, T/C [1]: 95.5%; viability, T/C [2]: 94.6%; viability, T/C [7]: 97.4%; viability, T/C [8]: 96.7%; viability, T/C [13]: 76.6%; viability, T/C [14]: 82.5%; viability, T/C [19]: 41.4%; viability, T/C [20]: 41.3%; viability, T/C [24]: 3.12%; viability, T/C [25]: 0.7%; viability, T/C [26]: 8.8%; viability, T/C [27]: 0.33%; viability, T/C [28]: 0.26%; viability, T/C [29]: 0.37%; viability, T/C [30]: 0.99%
3 | Cn1ncnc1[C@H]1c2n[nH]c(=O)c3cc(F)cc(c23)N[C@@H]1c1ccc(F)cc1 + COc1cc2c(cc1O)CCNC21CSC2c3c(OC(C)=O)c(C)c4c(c3C(COC1=O)N1C(O)C3Cc5cc(C)c(OC)c(O)c5C(C21)N3C)OCO4 | > 3 µM | 2.74 µM | 1.83 µM | < 0.00949 µM | < 0.00949 µM | 85.9% | 85% | 76.3% | 52.6% | 82% | 82% | 66.3% | 48.6% | 70% | 76.1% | 54.6% | 46.6% | 25.2% | 27% | 14.8% | viability, T/C [1]: 93.6%; viability, T/C [2]: 89.1%; viability, T/C [7]: 80.7%; viability, T/C [8]: 85.3%; viability, T/C [13]: 76%; viability, T/C [14]: 73.5%; viability, T/C [19]: 32.3%; viability, T/C [20]: 28.7%; viability, T/C [24]: 2.84%; viability, T/C [25]: 0.32%; viability, T/C [26]: 0.45%; viability, T/C [27]: 0.37%; viability, T/C [28]: 0.38%; viability, T/C [29]: 0.36%; viability, T/C [30]: 0.91%
4 | O=C(c1cc(Cc2n[nH]c(=O)c3ccccc23)ccc1F)N1CCN(C(=O)C2CC2)CC1 + COc1cc2c(cc1O)CCNC21CSC2c3c(OC(C)=O)c(C)c4c(c3C(COC1=O)N1C(O)C3Cc5cc(C)c(OC)c(O)c5C(C21)N3C)OCO4 | 7.8 µM | 16.3 µM | 7.27 µM | < 0.0949 µM | < 0.0949 µM | 96.8% | 93.2% | 97.8% | 71.7% | 93.1% | 91.4% | 92.6% | 76.2% | 74.4% | 80.7% | 70.5% | 70.8% | 32.8% | 27.3% | 26.8% | viability, T/C (second compound 30 pM, first compound 9.49 µM): 47.4%; viability, T/C (second compound 30 pM, first compound 30 µM): 38.8%; viability, T/C (second compound 94.9 pM, first compound 9.49 µM): 59.8%; viability, T/C (second compound 94.9 pM, first compound 30 µM): 39.9%; viability, T/C (second compound 0.0003 µM, first compound 9.49 µM): 43.8%; viability, T/C (second compound 0.0003 µM, first compound 30 µM): 28.1%; viability, T/C [24]: 18.3%; viability, T/C (second compound 0.000949 µM, first compound 9.49 µM): 11.1%; viability, T/C (second compound 0.000949 µM, first compound 30 µM): 2.5%; viability, T/C [27]: 0.52%; viability, T/C [28]: 0.45%; viability, T/C [29]: 0.51%; viability, T/C [30]: 0.63%; viability, T/C (second compound 0.003 µM, first compound 9.49 µM): 0.83%; viability, T/C (second compound 0.003 µM, first compound 30 µM): 1.26%
